In this assay the test system is Sprague Dawley male rats. Description: Sexual behaviour of sexually dysfunctional (fluoxetine-treated) male rats. It is filed as in vivo, rat. Conditions: fluoxetine 20 mg/kg i.p. 3 days (vs vehicle+vehicle); day 4 Compound (1) 15 mg/kg or yohimbine 2 mg/kg i.p. 1 h before test (vs fluoxetine+vehicle). Here is the method: Sprague Dawley male rats (Charles River, UK) were kept, 4 rats per cage, in a reversed lighting regime (12:12 hours, lights off at 5.00 h), with free access to food and water. The rats were pre-selected by being presented with a receptive female at […], i.e. every third day (haying 2 clear days between presentations) until completing 6-7 trials of baseline determination. The animals showing consistently vigorous behaviour (ejaculatory latencies <300 s) were chosen for further experiments. Animals were treated for 3 consecutive days with either vehicle (water) or fluoxetine (20 mg/kg, i.p., in a 2 ml/kg dosing volume). On the fourth day, the animals treated with water received vehicle (veh+veh) and the animals treated with fluoxetine received one of the three following treatments: Compound (1) (15 mg/kg, dissolved in 50% 2-hydroxypropyl-β-cyclodextrin in saline), vehicle (cyclodextrine), or yohimbine (2 mg/kg dissolved in water). All treatments were administered i.p. in a 1 ml/kg volume, 1 h before tests.
For all the sexual behaviour tests, the males were placed in an observation arena (50-60 cm diameter), starting 5 hours into the dark cycle and observed under red illumination. Three to 4 minutes after placing the male in the arena, a receptive female (ovariectomised, bearing a 7 mm Silastic implant of oestradiol benzoate) was introduced to the arena and the following parameters noted: Mount Latency: time (in seconds) taken between introduction of female and first mount. A maximum time of 15 minutes (900 seconds) was allowed, and the test terminated if no mounts were recorded within that time (FIG. 16), Ejaculation Latency: time (in seconds) taken from first intromission to ejaculation. A maximum time of 30 minutes (1800 seconds) was given, and the test terminated if ejaculation was not achieved in that time (FIG. 17), Percentage of males achieving ejaculation within 30 minutes was calculated (FIG. 18).
A one-way ANOVA followed by Dunnett's t test was used to compare the fluoxetine+vehicle group and other groups for mount and ejaculatory latencies. Percentage of animals ejaculating was analysed using a Chi-square test followed by Fisher's test. (*: P<0.05, **: P<0.01, ***: P<0.001; n=15-19).

Take `COc1ccc(C2(CNC(=O)[C@](C)(Cc3c[nH]c4ccccc34)NC(=O)Nc3ccc([N+](=O)[O-])cc3)CCCCC2)nc1` [Compound (1), (S) 3-(1H-Indol-3-yl)-N-[1-(5-methoxy-pyridin-2-yl)-cyclohexyl-methyl]-2-methyl-2-[3-(4-nitro-phenyl)-ureido]-propionamide]: the Ejaculation latency result is “significantly decreased”, the Mount latency entry was “significantly decreased” and the “percentage of animals ejaculating (within 30 minutes)” value is given as “increasing the percentage of animals ejaculating”.
